Results on two compounds are retold here after ChEMBL document CHEMBL1149964, “The structure of MK-571 (form I) at 170 K and conformational analysis by molecular modeling” (Bioorg Med Chem Lett, 1992).

Test [1] has as its target T1, Cysteinyl leukotriene receptor 1 (Homo sapiens) (UniProt Q9Y271).
T1 sequence (whole entry): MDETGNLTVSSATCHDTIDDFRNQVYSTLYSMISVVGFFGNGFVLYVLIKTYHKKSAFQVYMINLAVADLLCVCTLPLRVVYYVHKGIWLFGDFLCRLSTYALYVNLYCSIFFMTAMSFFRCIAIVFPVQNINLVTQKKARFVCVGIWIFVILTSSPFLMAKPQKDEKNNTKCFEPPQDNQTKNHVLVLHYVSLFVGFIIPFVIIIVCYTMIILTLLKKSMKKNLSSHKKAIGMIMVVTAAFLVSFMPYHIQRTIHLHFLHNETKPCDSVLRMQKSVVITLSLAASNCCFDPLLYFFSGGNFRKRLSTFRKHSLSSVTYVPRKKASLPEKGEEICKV
As to the kind of experiment: In vitro antagonistic activity against leukotriene D4 receptor; A - Active. It is filed as functional. The conditions noted are these: filed as antagonist.

Test [2] has as its target T1, Cysteinyl leukotriene receptor 1 (Homo sapiens). As to the kind of experiment: In vivo antagonistic activity against leukotriene D4 receptor; A - Active. It is filed as functional, organism-based. The conditions noted are these: filed as antagonist.

On to `CN(C)C(=O)CCSC(SCCC(=O)O)c1cccc(/C=C/c2ccc3ccc(Cl)cc3n2)c1` (centres undefined), for which the Activity entry in test [1] and in test [2] was “Antagonist” in each case.
As for `CN(C)C(=O)CCS[C@H](SCCC(=O)O)c1cccc(/C=C/c2ccc3ccc(Cl)cc3n2)c1`, the Activity entry in test [1] and in test [2] was “Antagonist” throughout.
